US9637491B2, “Pyrazolo[4,3-D]pyrimidines as kinase inhibitors” (Origenis GmbH, priority 2012, dated 2017)

Biological target: T1, SYK kinase (Homo sapiens, UniProt P43405)
T1 construct: purchased Invitrogen, Carlsbad
Test: SYK assay (OMNIA Kinase Assay, Invitrogen)
Assay type: biochemical
Settings: SYK Activities; 1 mM ATP, 10 μM Omnia Peptide Substrate Tyr 7, 30° C.
Method: In the assay OMNIA® KINASE ASSAY by Invitrogen Corporation (Carlsbad) the effect of invention of a compound on the phosphorylation is determined by measurement of fluorescence intensity of a chelation-enhanced fluorophore called SOX. Upon phosphorylation of the peptide by the kinase of interest, Mg2+ is chelated to form a bridge between the SOX moiety and the phosphate group that is transferred to the specific tyrosine on the peptide. The fluorescence intensity is directly proportional to the amount of peptide phosphorylation.
To the wells of an 384 well small volume plate (Greiner, Frickenhausen) are added (i) the compound under test in 5% DMSO/distilled water (2 μl), (ii) 16 μl of the master mix containing ATP, DTT, Kinase Reaction Buffer, Omina Peptide Substrate Tyr 7 resulting in a final concentration of 1 mM ATP, 0.2 mM DTT and 10 μM Peptide Substrate. The Master Mix and the assay plate was incubated to reaction temperature before the measurement (30° C.). The reaction was started with addition of (iii) 2 μl 4 μg/ml SYK kinase (Invitrogen, Carlsbad). During measurement fluorescence intensitiy readings were collected using a TECAN M1000 at a wavelength of λex 360/λem 485 nm every 30 s for 30 minutes. The reaction velocity was plotted versus the inhibitor concentration to determine the IC50 using XLFit 5.0 (IDBS, Guildford) to fit to a sigmoidal dose response curve.

IC50 | Compound
10 to 100 nM | OCCn1cc(Nc2nc(-c3ccc4cn[nH]c4c3)nc3cn[nH]c23)cn1 [Example 476, 2-(4-((5-(1H-indazol-6-yl)-1H-pyrazolo[4,3-d]pyrimidin-7-yl)amino)-1H-pyrazol-1-yl)ethan-1-ol]
< 10 nM | c1cc(-c2nc(Nc3cnn(C4CCOCC4)c3)c3[nH]ncc3n2)co1 [Example 146, 5-(furan-3-yl)-N-(1-(tetrahydro-2H-pyran-4-yl)-1H-pyrazol-4-yl)-1H-pyrazolo[4,3-d]pyrimidin-7-amine]
10 to 100 nM | COC(=O)c1cccc(-c2nc(Nc3cnn(C4CCOCC4)c3)c3[nH]ncc3n2)c1 [Example 216, methyl 3-(7-((1-(tetrahydro-2H-pyran-4-yl)-1H-pyrazol-4-yl)amino)-1H-pyrazolo[4,3-d]pyrimidin-5-yl)benzoate]
10 to 100 nM | c1cc(-c2nc(Nc3cnn(C4CCCOC4)c3)c3[nH]ncc3n2)co1 (centres unmarked) [Example 483, 5-(furan-3-yl)-N-(1-(tetrahydro-2H-pyran-3-yl)-1H-pyrazol-4-yl)-1H-pyrazolo[4,3-d]pyrimidin-7-amine]
10 to 100 nM | FCCn1cc(Nc2nc(-c3ccoc3)nc3cn[nH]c23)cn1 [Example 361, N-(1-(2-fluoroethyl)-1H-pyrazol-4-yl)-5-(furan-3-yl)-1H-pyrazolo[4,3-d]pyrimidin-7-amine]
10 to 100 nM | FC(F)(F)Cn1cc(Nc2nc(-c3ccc4cn[nH]c4c3)nc3cn[nH]c23)cn1 [Example 517, 5-(1H-indazol-6-yl)-N-(1-(2,2,2-trifluoroethyl)-1H-pyrazol-4-yl)-1H-pyrazolo[4,3-d]pyrimidin-7-amine]
10 to 100 nM | COCCCn1cc(Nc2nc(-c3cccs3)nc3cn[nH]c23)cn1 [Example 429, N-(1-(3-methoxypropyl)-1H-pyrazol-4-yl)-5-(thiophen-2-yl)-1H-pyrazolo[4,3-d]pyrimidin-7-amine]
100 to 1000 nM | COCC(C)(C)n1cc(Nc2nc(-c3ccoc3)nc3cn[nH]c23)cn1 [Example 290, 5-(furan-3-yl)-N-(1-(1-methoxy-2-methylpropan-2-yl)-1H-pyrazol-4-yl)-1H-pyrazolo[4,3-d]pyrimidin-7-amine]
10 to 100 nM | CC(C)Cn1cc(Nc2nc(-c3ccoc3)nc3cn[nH]c23)cn1 [Example 240, 5-(furan-3-yl)-N-(1-isobutyl-1H-pyrazol-4-yl)-1H-pyrazolo[4,3-d]pyrimidin-7-amine]
10 to 100 nM | CN1C(=O)COc2ccc(Nc3nc(-c4ccoc4)nc4cn[nH]c34)cc21 [Example 488, 6-((5-(furan-3-yl)-1H-pyrazolo[4,3-d]pyrimidin-7-yl)amino)-4-methyl-2H-benzo[b][1,4]oxazin-3(4H)-one]
100 to 1000 nM | COCCCn1cc(Nc2nc(-c3cnn(C)c3)nc3cn[nH]c23)cn1 [Example 436, N-(1-(3-methoxypropyl)-1H-pyrazol-4-yl)-5-(1-methyl-1H-pyrazol-4-yl)-1H-pyrazolo[4,3-d]pyrimidin-7-amine]
100 to 1000 nM | c1nc(-c2nc(Nc3cnn(C4CCOCC4)c3)c3[nH]ncc3n2)co1 [Example 127, 5-(oxazol-4-yl)-N-(1-(tetrahydro-2H-pyran-4-yl)-1H-pyrazol-4-yl)-1H-pyrazolo[4,3-d]pyrimidin-7-amine]
10 to 100 nM | FCCn1cc(Nc2nc(C3CC3)nc3cn[nH]c23)cn1 [Example 362, 5-cyclopropyl-N-(1-(2-fluoroethyl)-1H-pyrazol-4-yl)-1H-pyrazolo[4,3-d]pyrimidin-7-amine]
10 to 100 nM | CC(C)C(C)n1cc(Nc2nc(C3CC3)nc3cn[nH]c23)cn1 (centres unmarked) [Example 498, 5-cyclopropyl-N-(1-(3-methylbutan-2-yl)-1H-pyrazol-4-yl)-1H-pyrazolo[4,3-d]pyrimidin-7-amine]
10 to 100 nM | Cn1cc(-c2nc(Nc3cnn(C4CCOCC4)c3)c3[nH]ncc3n2)cn1 [Example 122, 5-(1-methyl-1H-pyrazol-4-yl)-N-(1-(tetrahydro-2H-pyran-4-yl)-1H-pyrazol-4-yl)-1H-pyrazolo[4,3-d]pyrimidin-7-amine]
< 10 nM | CC(C)n1cc(Nc2nc(-c3cocn3)nc3cn[nH]c23)cn1 [Example 244, N-(1-isopropyl-1H-pyrazol-4-yl)-5-(oxazol-4-yl)-1H-pyrazolo[4,3-d]pyrimidin-7-amine]

Further lines, the molecule ahead of its results:

Compound | IC50
c1nn(C2CC2)cc1Nc1nc(C2CC2)nc2cn[nH]c12 [Example 282, 5-cyclopropyl-N-(1-cyclopropyl-1H-pyrazol-4-yl)-1H-pyrazolo[4,3-d]pyrimidin-7-amine] | 10 to 100 nM
Fc1cc(Nc2nc(-c3ccc4cn[nH]c4c3)nc3cn[nH]c23)ccc1N1CCOCC1 [Example 46, N-(3-fluoro-4-morpholinophenyl)-5-(1H-indazol-6-yl)-1H-pyrazolo[4,3-d]pyrimidin-7-amine] | 10 to 100 nM
CC1CC1c1nc(Nc2ccc(N3CCOCC3)cc2)c2[nH]ncc2n1 (centres unmarked) [Example 101, 5-(2-methylcyclopropyl)-N-(4-morpholinophenyl)-1H-pyrazolo[4,3-d]pyrimidin-7-amine] | 10 to 100 nM
CC(=O)N1CCN(c2ccc(Nc3nc(C4CCC4)nc4cn[nH]c34)cc2)CC1 [Example 192, 1-(4-(4-((5-cyclobutyl-1H-pyrazolo[4,3-d]pyrimidin-7-yl)amino)phenyl)piperazin-1-yl)ethan-1-one] | < 10 nM
c1cncc(-c2nc(Nc3ccc(N4CCOCC4)cc3)c3n[nH]cc3n2)c1 [Example 162, N-(4-morpholinophenyl)-5-(pyridin-3-yl)-2H-pyrazolo[4,3-d]pyrimidin-7-amine] | 100 to 1000 nM
COc1ccc(Nc2nc(C3CCOC3)nc3cn[nH]c23)cc1OC (centres unmarked) [Example 80, N-(3,4-dimethoxyphenyl)-5-(tetrahydrofuran-3-yl)-1H-pyrazolo[4,3-d]pyrimidin-7-amine] | 100 to 1000 nM
COc1cc(Nc2nc(C3C4CCCCC43)nc3cn[nH]c23)ccc1N1CCOCC1 (centres unmarked) [Example 475, 5-(bicyclo[4.1.0]heptan-7-yl)-N-(3-methoxy-4-morpholinophenyl)-1H-pyrazolo[4,3-d]pyrimidin-7-amine] | 100 to 1000 nM
Fc1cc2cn[nH]c2cc1-c1nc(Nc2ccc(N3CCOCC3)cc2)c2[nH]ncc2n1 [Example 77, 5-(5-fluoro-1H-indazol-6-yl)-N-(4-morpholinophenyl)-1H-pyrazolo[4,3-d]pyrimidin-7-amine] | 10 to 100 nM
COc1ccc(Nc2nc(-c3sccc3C)nc3cn[nH]c23)cc1OC [Example 51, N-(3,4-dimethoxyphenyl)-5-(3-methylthiophen-2-yl)-1H-pyrazolo[4,3-d]pyrimidin-7-amine] | 10 to 100 nM
CC(C)c1nc(Nc2cnn(C3CCN(C)CC3)c2)c2[nH]ncc2n1 [Example 184, 5-isopropyl-N-(1-(1-methylpiperidin-4-yl)-1H-pyrazol-4-yl)-1H-pyrazolo[4,3-d]pyrimidin-7-amine] | 100 to 1000 nM
CC(=O)N1CCC(n2cc(Nc3nc(C4CC4)nc4cn[nH]c34)cn2)CC1 [Example 204, 1-(4-(4-((5-cyclopropyl-1H-pyrazolo[4,3-d]pyrimidin-7-yl)amino)-1H-pyrazol-1-yl)piperidin-1-yl)ethan-1-one] | < 10 nM
COCCn1ccc(Nc2nc(C3CC3)nc3cn[nH]c23)cc1=O [Example 231, 4-((5-cyclopropyl-1H-pyrazolo[4,3-d]pyrimidin-7-yl)amino)-1-(2-methoxyethyl)pyridin-2(1H)-one] | 100 to 1000 nM
N#Cc1cc(Nc2nc(-c3c(F)cccc3F)nc3cn[nH]c23)ccc1N1CCOCC1 [Example 502, 5-((5-(2,6-difluorophenyl)-1H-pyrazolo[4,3-d]pyrimidin-7-yl)amino)-2-morpholinobenzonitrile] | 10 to 100 nM
COc1ccc(Nc2nc(-c3ccco3)nc3cn[nH]c23)cc1OC [Example 87, N-(3,4-dimethoxyphenyl)-5-(furan-2-yl)-1H-pyrazolo[4,3-d]pyrimidin-7-amine] | 10 to 100 nM
COc1ccc(Nc2nc(-c3c(F)cccc3F)nc3cn[nH]c23)cc1NC(C)=O [Example 523, N-(5-((5-(2,6-difluorophenyl)-1H-pyrazolo[4,3-d]pyrimidin-7-yl)amino)-2-methoxyphenyl)acetamide] | 100 to 1000 nM
CC(=O)N1CCC(n2cc(Nc3nc(C4CCC4)nc4cn[nH]c34)cn2)CC1 [Example 205, 1-(4-(4-((5-cyclobutyl-1H-pyrazolo[4,3-d]pyrimidin-7-yl)amino)-1H-pyrazol-1-yl)piperidin-1-yl)ethan-1-one] | 10 to 100 nM
CC(=O)N1CCN(c2ccc(Nc3nc(-c4cccc(N)c4)nc4cn[nH]c34)cc2)CC1 [Example 14, 1-(4-(4-((5-(3-aminophenyl)-1H-pyrazolo[4,3-d]pyrimidin-7-yl)amino)phenyl)piperazin-1-yl)ethan-1-one] | 100 to 1000 nM
COc1ccc(Nc2nc(-c3ccno3)nc3cn[nH]c23)cc1OC [Example 68, N-(3,4-dimethoxyphenyl)-5-(isoxazol-5-yl)-1H-pyrazolo[4,3-d]pyrimidin-7-amine] | 100 to 1000 nM
CN1CCN(C2CCN(C(=O)c3ccc(Nc4nc(C5CC5)nc5cn[nH]c45)cc3)CC2)CC1 [Example 53, (4-((5-cyclopropyl-1H-pyrazolo[4,3-d]pyrimidin-7-yl)amino)phenyl)(4-(4-methylpiperazin-1-yl)piperidin-1-yl)methanone] | 100 to 1000 nM
